Measurements from publication PMC3974799 (PLoS ONE, 2014).

Key:
[1] = target: T1, cytochrome bc1 complex (Btbc1), cyt b subunit (Bos taurus, UniProt P00157); test: cyt c reduction assay with purified bc1; assay type: biochemical
T1 construct: gene MT-CYB; purified 11-subunit mitochondrial bc1 complex from beef heart; with cyt c1, iron-sulfur protein (bc1 complex)

[2] = target: T1, cytochrome bc1 complex (Btbc1), cyt b subunit; test: Lineweaver-Burk kinetics at […]; difference spectra; single turnover; assay type: biochemical
[3] = system: T2, Complex III (cyt bc1 complex), cyt b subunit; test: cyt c reduction with decylubiquinol in isolated mitochondria, […] inhibition at […]; assay type: cell-based, Phytophthora capsici; conditions: 4 µM
T2 construct: light mitochondrial fraction; with cyt c1, iron-sulfur protein (bc1 complex)

[4] = target: T1, cytochrome bc1 complex (Btbc1), cyt b subunit; test: cyt c reduction assay with purified bc1; also difference spectra and Lineweaver-Burk kinetics; assay type: biochemical
[5] = target: T3, cytochrome bc1 complex (Rsbc1), cyt b subunit (Cereibacter sphaeroides, UniProt Q02761); test: cyt c reduction assay with purified bc1; Lineweaver-Burk kinetics; assay type: biochemical
T3 construct: gene petB; purified hexahistidine-tagged 4-subunit bc1 complex; with cyt c1, iron-sulfur protein (bc1 complex)
T3 sequence (Q02761 2-445): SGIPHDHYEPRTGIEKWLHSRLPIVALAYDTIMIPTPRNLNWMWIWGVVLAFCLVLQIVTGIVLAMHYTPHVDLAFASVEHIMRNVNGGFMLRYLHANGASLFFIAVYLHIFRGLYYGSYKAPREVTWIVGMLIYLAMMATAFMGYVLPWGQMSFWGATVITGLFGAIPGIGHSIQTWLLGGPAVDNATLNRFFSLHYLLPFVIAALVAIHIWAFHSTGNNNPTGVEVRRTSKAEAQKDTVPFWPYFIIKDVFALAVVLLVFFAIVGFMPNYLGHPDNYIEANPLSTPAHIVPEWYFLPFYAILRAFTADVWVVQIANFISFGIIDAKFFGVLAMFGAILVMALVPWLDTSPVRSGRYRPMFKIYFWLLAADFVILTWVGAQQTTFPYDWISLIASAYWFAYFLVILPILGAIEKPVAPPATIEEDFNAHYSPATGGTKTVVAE

T1 sequence (P00157 whole entry): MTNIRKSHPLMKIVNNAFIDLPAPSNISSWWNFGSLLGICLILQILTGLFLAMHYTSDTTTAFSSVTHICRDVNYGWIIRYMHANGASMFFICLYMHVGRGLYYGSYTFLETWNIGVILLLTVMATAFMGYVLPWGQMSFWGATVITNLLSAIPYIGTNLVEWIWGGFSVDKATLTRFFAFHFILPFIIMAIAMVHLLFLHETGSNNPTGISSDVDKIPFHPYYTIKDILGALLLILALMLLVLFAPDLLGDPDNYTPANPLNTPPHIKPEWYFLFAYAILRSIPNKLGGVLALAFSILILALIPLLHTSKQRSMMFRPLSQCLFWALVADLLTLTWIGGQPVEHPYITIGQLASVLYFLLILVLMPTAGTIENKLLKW
T1 sequence (P13272 79-274 partner): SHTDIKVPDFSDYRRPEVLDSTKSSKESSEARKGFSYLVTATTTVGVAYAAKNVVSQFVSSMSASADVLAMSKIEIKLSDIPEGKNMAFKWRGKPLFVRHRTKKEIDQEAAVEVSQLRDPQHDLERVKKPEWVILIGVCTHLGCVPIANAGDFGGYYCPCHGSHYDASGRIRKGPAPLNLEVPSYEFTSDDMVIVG
T1 sequence (P00125 85-325 partner): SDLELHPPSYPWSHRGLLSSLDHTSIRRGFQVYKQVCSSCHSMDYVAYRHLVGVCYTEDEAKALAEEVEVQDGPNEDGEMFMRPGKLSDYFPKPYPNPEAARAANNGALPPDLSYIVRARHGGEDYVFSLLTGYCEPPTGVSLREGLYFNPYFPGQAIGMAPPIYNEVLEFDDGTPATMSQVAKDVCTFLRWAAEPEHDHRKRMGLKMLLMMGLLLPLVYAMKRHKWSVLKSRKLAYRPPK

## CO/C=C(/C(=O)OC)c1ccccc1Oc1cc(Oc2ccccc2C#N)ncn1 [azoxystrobin]
[1]
  IC50: 0.0477 µM

## CO/C(=C/C(N)=O)[C@H](C)[C@H](/C=C/c1csc(-c2csc([C@@H](C)/C=C/C=C/C(C)C)n2)n1)OC [myxothiazol]
[2]
  Lineweaver-Burk kinetics at 30 and 50 nM; difference spectra; single turnover: myxothiazol is a competitive inhibitor for the substrate quinol but a non-competitive inhibitor for cyt c

## CC(C)(C)c1ccc(/C(=C/C(=O)N2CCOCC2)c2ccnc(Cl)c2)cc1 [pyrimorph, (Z)-3-[(2-chloropyridine-4-yl)-3-(4-tert-butylphenyl)-acryloyl] morpholine]
[3]
  percent inhibition: 95.3
[4]
  IC50: 85 µM
[5]
  IC50: 69.2 µM

## C/C=C(C)/C=C/C=C/[C@H](OC)[C@@H](C)[C@@H](OC)[C@@H](C)CCc1oc2c(O)c(OC)cc(OC)c2c(=O)c1C [stigmatellin]
[1]
  IC50: 0.0028 µM
